# Key:
# age spots on the face = assay: Reduction of age spots on the face, half-side test, chromameter skin shade ITA°; assay type: in vivo, human; conditions: applied twice daily for six weeks, FIG. 4; for ΔΔITA after 6-week application of the test formulations (reduction of age spots): 40 women, PKEK 0.004%, sodium ascorbyl phosphate 1.5%
# Protocol: In order to quantify such age spots, color measurements of the skin are carried out. For this purpose, chromameters are used. The chromameter measures the color values L*, a* and b*. These describe a three-dimensional color space, with the help of which every perceivable color can be described, cf. FIG. 2. The end points are black (L=0) and white (L=100). In order to be able to classify the skin shade, the parameters L* and b* are required. The skin shade ITA° is given in degrees and calculated using the following formula: ITA°=[arctan((L*−50)/b*)]*180/3.14159 By means of the following study, the aim is to investigate whether the tetrapeptide PKEK is able to visibly reduce age spots. The study was carried out as a half-side test. 40 women aged between 30 and 70 years were selected who had visible age spots on the face. They were each given 2 test formulations, one for the right half of the face and the other for the left half of the face. The test formulations had to be applied twice daily over a period of six weeks. [table] Prior to the start of the study and also after 6 weeks, the color of the skin directly on the age spot was measured as well as in the adjoining area. This was performed using a CR 400 chromameter from Minolta. The skin shade ITA° was calculated both for the age spot (ITA°A) and also the adjoining area (ITA°U) and the difference was calculated: ΔITA°=ITA°U−ITA°A The greater ΔITA°, the more visible the age spot.
# [1] = system: evenness of the skin appearance of dark-skinned women (Fitzpatrick type VI-V); assay: Improvement in the skin appearance in dark-skinned people, visual assessment of evenness by an expert; assay type: in vivo, human; conditions: 0.004% PKEK face cream twice daily, FIG. 5
# Protocol: For the following study, dark-skinned women (Fitzpatrick type VI-V) were used. The Fitzpatrick scale serves to organize the different skin types:
# In each case, 25 female subjects were given a face cream which comprised either the tetrapeptide PKEK or no active ingredient (vehicle). They had to apply this formulation twice daily over the entire face for a period of 12 weeks. Prior to the start of the study and also after 2, 4, 8 and 12 weeks, the evenness of the skin appearance was assessed visually by an expert.
# A five-part scale was used for assessing the skin appearance:
# 5=no contrast, very even skin appearance 4=slight contrast, slightly irregular skin appearance 3=moderate contrast, irregular skin appearance 2=high contrast, highly irregular skin appearance 1=very high contrast, very highly irregular skin appearance
# [2] = system: melanin concentration in the skin of the forearm; assay: In vivo lightening (2-month study), melanin concentration measured with a Mexameter probe; parameters: species or system human; conditions: 0.005% PKEK formulation, 20 subjects, compared to vehicle, FIG. 1
# Excerpt: 20 subjects wore a test formulation without peptide or with 0.005% PKEK over a period of 8 weeks on one forearm in each case. Prior to the start of the study, and also after 8 weeks, a Mexameter probe (Courage & Khazaka, Cologne) was used to measure the melanin concentration both on the inside and also on the outside of the forearm. The measurement of the melanin concentration in the skin is based on the principle of absorption/reflection. The Mexameter probe emits light of a specific wavelength which is in agreement with the absorption maxima of the melanin in the skin. The light reflected by the skin is measured and placed relative to the emitted amount of light. The resulting measurement values are given as index numbers. [table]
compound,measurement,setting,value
"O=C1O[C@H]([C@@H](O)CO)C([O-])=C1OP(=O)([O-])[O-].[Na+].[Na+].[Na+] [sodium ascorbyl phosphate, reference compound]",ΔΔITA after 6-week application of the test formulations (reduction of age spots),age spots on the face,visible reduction of the age spots
Pro Lys Glu Lys (PKEK),ΔΔITA after 6-week application of the test formulations (reduction of age spots),age spots on the face,visible reduction of the age spots
same,"reduction of age spots, PKEK compared with sodium ascorbyl phosphate",age spots on the face; comparison of the single actives,greater reduction than sodium ascorbyl phosphate
same,improvement in the evenness of the skin appearance (five-part visual scale),"[1]; after 12 weeks, vehicle shows no further improvement",significantly improves the skin appearance yet further
same,improvement in the evenness of the skin appearance compared with the vehicle,"[1]; within the first 8 weeks, over the course of the time",increasingly greater over the course of the time than with the vehicle
same,improvement in the evenness of the skin appearance (five-part visual scale),[1]; within the first 8 weeks,visibly improved
same,difference in the melanin values after 8 weeks compared to the starting value (decrease in skin brownness),[2]; inside of the forearm,significantly greater decrease in skin brownness
same,difference in the melanin values after 8 weeks compared to the starting value (decrease in skin brownness),[2]; outside of the forearm,significantly greater decrease in skin brownness

# From patent US20120244094A1, “TETRAPEPTIDES FOR BRIGHTENING THE SKIN” (EVONIK GOLDSCHMIDT GMBH, priority 2009, published 2012)
